Laboratory results as given in patent publication US8853203B2, “Diazepinone derivatives” (Novartis AG, priority 2012, dated 2014).

Tests used:
human mGluR1 = human mGluR1 (Homo sapiens (Human), UniProt Q13255); experiment: mGluR1 antagonism, L-glutamate induced intracellular calcium increase (FLIPR) in CHO cells stably expressing human mGluR1; format: cell-based; settings: for IC50: L-glutamate induced intracellular calcium, CHO cells expressing human mGluR1, FLIPR; for inhibition at 10 µM: CHO
Chain of human mGluR1 (Q13255 19-1194): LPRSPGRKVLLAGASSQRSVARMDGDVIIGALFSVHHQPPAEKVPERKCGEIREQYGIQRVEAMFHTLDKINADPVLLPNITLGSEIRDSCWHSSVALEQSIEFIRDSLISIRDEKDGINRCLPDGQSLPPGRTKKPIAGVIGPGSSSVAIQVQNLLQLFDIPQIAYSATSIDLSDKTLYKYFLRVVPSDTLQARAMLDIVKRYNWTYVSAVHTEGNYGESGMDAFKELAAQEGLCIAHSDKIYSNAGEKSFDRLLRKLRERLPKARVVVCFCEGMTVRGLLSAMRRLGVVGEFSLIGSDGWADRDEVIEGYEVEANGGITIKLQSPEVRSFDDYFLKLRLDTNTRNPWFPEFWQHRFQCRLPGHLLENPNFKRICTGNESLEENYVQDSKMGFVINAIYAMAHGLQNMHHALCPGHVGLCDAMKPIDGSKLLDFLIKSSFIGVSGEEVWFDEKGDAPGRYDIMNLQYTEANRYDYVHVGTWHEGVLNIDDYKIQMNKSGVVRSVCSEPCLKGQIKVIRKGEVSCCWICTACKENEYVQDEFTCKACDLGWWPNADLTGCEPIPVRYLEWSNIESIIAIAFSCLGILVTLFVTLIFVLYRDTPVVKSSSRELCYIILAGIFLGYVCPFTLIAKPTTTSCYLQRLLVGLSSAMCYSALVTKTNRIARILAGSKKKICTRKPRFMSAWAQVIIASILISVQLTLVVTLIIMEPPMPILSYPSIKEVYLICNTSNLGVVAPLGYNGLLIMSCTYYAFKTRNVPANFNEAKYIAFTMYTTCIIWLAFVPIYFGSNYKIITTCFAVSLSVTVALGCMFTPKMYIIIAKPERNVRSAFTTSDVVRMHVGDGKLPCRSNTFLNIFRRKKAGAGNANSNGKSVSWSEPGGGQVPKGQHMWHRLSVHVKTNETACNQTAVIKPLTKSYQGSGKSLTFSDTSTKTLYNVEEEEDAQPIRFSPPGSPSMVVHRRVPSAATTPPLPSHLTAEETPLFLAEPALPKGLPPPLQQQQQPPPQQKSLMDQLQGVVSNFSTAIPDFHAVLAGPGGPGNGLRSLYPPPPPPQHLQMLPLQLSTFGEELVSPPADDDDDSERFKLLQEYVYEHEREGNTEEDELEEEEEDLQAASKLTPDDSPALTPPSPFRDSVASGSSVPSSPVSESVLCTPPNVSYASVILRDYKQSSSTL

human mGluR5a receptors = human mGluR5a receptors (Homo sapiens (Human), UniProt P41594); experiment: inhibition of glutamate-induced elevation of intracellular calcium in L(tk-) cells expressing human mGluR5a; format: cell-based; settings: glutamate-induced intracellular calcium elevation, L(tk-) cells expressing human mGluR5a; read-out: mGluR5 IC50
Chain of human mGluR5a receptors (P41594 other isoform, or with tags, fused parts or gaps): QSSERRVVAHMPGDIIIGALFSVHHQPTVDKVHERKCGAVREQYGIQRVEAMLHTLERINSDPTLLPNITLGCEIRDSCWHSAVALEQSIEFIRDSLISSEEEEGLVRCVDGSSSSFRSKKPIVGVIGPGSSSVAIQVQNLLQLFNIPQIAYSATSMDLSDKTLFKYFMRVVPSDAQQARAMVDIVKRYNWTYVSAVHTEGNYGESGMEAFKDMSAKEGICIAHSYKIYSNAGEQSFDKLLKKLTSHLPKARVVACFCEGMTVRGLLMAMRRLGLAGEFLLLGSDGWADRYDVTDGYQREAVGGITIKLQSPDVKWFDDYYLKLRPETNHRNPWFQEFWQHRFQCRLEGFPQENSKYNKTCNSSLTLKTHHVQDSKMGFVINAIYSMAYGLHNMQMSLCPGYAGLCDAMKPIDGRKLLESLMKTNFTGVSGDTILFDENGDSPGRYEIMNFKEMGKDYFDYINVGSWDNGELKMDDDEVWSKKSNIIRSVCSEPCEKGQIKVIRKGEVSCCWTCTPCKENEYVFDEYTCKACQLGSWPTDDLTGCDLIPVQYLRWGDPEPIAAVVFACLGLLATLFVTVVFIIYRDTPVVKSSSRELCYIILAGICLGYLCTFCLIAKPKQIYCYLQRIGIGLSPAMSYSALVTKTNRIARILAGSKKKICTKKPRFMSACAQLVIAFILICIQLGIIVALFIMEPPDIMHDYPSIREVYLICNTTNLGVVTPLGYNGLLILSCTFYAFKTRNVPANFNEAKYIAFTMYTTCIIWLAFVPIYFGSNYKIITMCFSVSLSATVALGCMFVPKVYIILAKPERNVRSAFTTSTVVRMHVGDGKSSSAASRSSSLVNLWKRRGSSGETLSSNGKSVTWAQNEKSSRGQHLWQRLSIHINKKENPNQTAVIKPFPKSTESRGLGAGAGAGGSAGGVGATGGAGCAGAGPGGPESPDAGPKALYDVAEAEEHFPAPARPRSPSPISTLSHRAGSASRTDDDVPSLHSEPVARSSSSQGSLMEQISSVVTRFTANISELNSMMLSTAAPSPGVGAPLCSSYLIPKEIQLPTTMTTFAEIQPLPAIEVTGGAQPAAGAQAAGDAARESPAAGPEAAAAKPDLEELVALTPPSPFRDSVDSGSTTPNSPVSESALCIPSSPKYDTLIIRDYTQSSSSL
Method in brief: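 Compounds tested for inhibition of the glutamate-induced rise in intracellular calcium concentration in L(tk-) cells stably expressing human mGluR5a.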

SMILES | IC50 (human mGluR1) [µM] | IC50 (human mGluR5a receptors) [µM] | inhibition at 10 µM (human mGluR1) [%]
COCCc1cn(C2=NCC(=O)N3CCc4c(cccc4-c4cscn4)C3=C2)cn1 [Example 76, 2-(4-(2-methoxyethyl)-1H-imidazol-1-yl)-9-(thiazol-4-yl)-7,8-dihydro-[1,4]diazepino[7,1-a]isoquinolin-5(4H)-one] | 4.2 | 0.034 | 
COCc1cn(C2=NCC(=O)N3CCc4c(cccc4-c4ncc(C)s4)C3=C2)cn1 [Example 77] |  | 0.032 | 73
Cc1cn(C2=NCC(=O)N3CCc4c(cccc4-c4cncnc4)C3=C2)cn1 [Example 78, 2-(4-methyl-1H-imidazol-1-yl)-9-(pyrimidin-5-yl)-7,8-dihydro-[1,4]diazepino[7,1-a]isoquinolin-5(4H)-one] | > 10 | 0.54 | 
Cc1cn(C2=NCC(=O)N3CCc4c(cccc4-c4cccnc4)C3=C2)cn1 [Example 79, 2-(4-methyl-1H-imidazol-1-yl)-9-(pyridin-3-yl)-7,8-dihydro-[1,4]diazepino[7,1-a]isoquinolin-5(4H)-one] | > 10 | 0.13 | 
Cc1cn(C2=NCC(=O)N3CCc4c(cccc4-c4ccncc4)C3=C2)cn1 [Example 80, 2-(4-methyl-1H-imidazol-1-yl)-9-(pyridin-4-yl)-7,8-dihydro-[1,4]diazepino[7,1-a]isoquinolin-5(4H)-one] | > 10 | 0.145 | 
Cc1cn(C2=NCC(=O)N3CCc4c(cccc4-c4ccc(F)nc4)C3=C2)cn1 [Example 81, 9-(6-fluoropyridin-3-yl)-2-(4-methyl-1H-imidazol-1-yl)-7,8-dihydro-[1,4]diazepino[7,1-a]isoquinolin-5(4H)-one] | > 10 | 0.036 | 
Cc1cn(C2=NCC(=O)N3CCc4c(cccc4-c4cncs4)C3=C2)cn1 [Example 82, 2-(4-methyl-1H-imidazol-1-yl)-9-(thiazol-5-yl)-7,8-dihydro-[1,4]diazepino[7,1-a]isoquinolin-5(4H)-one] | > 10 | 0.072 | 
O=C1CN=C(n2cnc(Cl)c2)C=C2c3cccc(-c4cncc(F)c4)c3CCN12 [Example 83, 2-(4-chloro-1H-imidazol-1-yl)-9-(5-fluoropyridin-3-yl)-7,8-dihydro-[1,4]diazepino[7,1-a]isoquinolin-5(4H)-one] | > 10 | 0.205 | 
COCCc1cn(C2=NCC(=O)N3CCc4c(cccc4-c4ccc(F)nc4)C3=C2)cn1 [Example 84, 9-(6-fluoropyridin-3-yl)-2-(4-(2-methoxyethyl)-1H-imidazol-1-yl)-7,8-dihydro-[1,4]diazepino[7,1-a]isoquinolin-5(4H)-one] | > 10 | 0.028 | 
C=Cc1cccc2c1CCN1C(=O)CN=C(n3cnc(COC)c3)C=C21 [Example 85, 2-(4-(methoxymethyl)-1H-imidazol-1-yl)-9-vinyl-7,8-dihydro-[1,4]diazepino[7,1-a]isoquinolin-5(4H)-one] | 1.6 | 0.039 | 
CCc1cn(C2=NCC(=O)N3CCc4c(cccc4-c4ccc(F)cc4)C3=C2)cn1 [Example 86, 2-(4-ethyl-1H-imidazol-1-yl)-9-(4-fluorophenyl)-7,8-dihydro-[1,4]diazepino[7,1-a]isoquinolin-5(4H)-one] | 5.9 | 0.012 | 
Cc1coc(-c2cccc3c2CCN2C(=O)CN=C(n4cnc(C5CC5)c4)C=C32)n1 [Example 87, 2-(4-cyclopropyl-1H-imidazol-1-yl)-9-(4-methyloxazol-2-yl)-7,8-dihydro-[1,4]diazepino[7,1-a]isoquinolin-5(4H)-one] |  | 0.148 | 56
Cc1cnc(-c2cccc3c2CCN2C(=O)CN=C(n4cnc(C5CC5)c4)C=C32)o1 [Example 88, 2-(4-cyclopropyl-1H-imidazol-1-yl)-9-(5-methyloxazol-2-yl)-7,8-dihydro-[1,4]diazepino[7,1-a]isoquinolin-5(4H)-one] |  | 0.131 | 47
CCCc1cccc2c1CCN1C(=O)CN=C(n3cnc(-c4ncco4)c3)C=C21 [Example 88a, 2-(4-(oxazol-2-yl)-1H-imidazol-1-yl)-9-propyl-7,8-dihydro-[1,4]diazepino[7,1-a]isoquinolin-5(4H)-one] |  | 0.005 | 24
O=C1CN=C(n2cnc(C3CC3)n2)C=C2c3cccc(-c4nccnc4F)c3CCN12 [Example 88b, 2-(3-cyclopropyl-1H-1,2,4-triazol-1-yl)-9-(3-fluoropyrazin-2-yl)-7,8-dihydro-[1,4]diazepino[7,1-a]isoquinolin-5(4H)-one] | > 2 | 0.02 | 
O=C1CN=C(n2cnc(C3CC3)n2)C=C2c3cccc(-c4ncccc4F)c3CCN12 [Example 88c, 2-(3-cyclopropyl-1H-1,2,4-triazol-1-yl)-9-(3-fluoropyridin-2-yl)-7,8-dihydro-[1,4]diazepino[7,1-a]isoquinolin-5(4H)-one] | > 10 | 0.271 | 

SMILES | IC50 (human mGluR1) [µM] | IC50 (human mGluR5a receptors) [µM] | inhibition at 10 µM (human mGluR1) [%]
O=C1CN=C(n2cnc(C3CC3)c2)C=C2c3cccc(-c4cncs4)c3CCN12 [Example 88d, 2-(4-cyclopropyl-1H-imidazol-1-yl)-9-(thiazol-5-yl)-7,8-dihydro-[1,4]diazepino[7,1-a]isoquinolin-5(4H)-one] | > 2 | 0.031 | 
Cc1ncc(-c2cccc3c2CCN2C(=O)CN=C(n4cnc(C5CC5)c4)C=C32)s1 [Example 88e, 2-(4-cyclopropyl-1H-imidazol-1-yl)-9-(2-methylthiazol-5-yl)-7,8-dihydro-[1,4]diazepino[7,1-a]isoquinolin-5(4H)-one] | 3.88 | 0.034 | 
O=C1CN=C(n2cnc(C3CC3)c2)C=C2c3cccc(-c4cnccn4)c3CCN12 [Example 88f, 2-(4-Cyclopropyl-1H-Imidazol-1-yl)-9-(pyrazin-2-yl)-7,8-dihydro-[1,4]diazepino[7,1-a]isoquinolin-5(4H)-one] | 1.95 | 0.1 | 
O=C1CN=C(n2cnc(C3CC3)n2)C=C2c3cccc(-c4nccs4)c3CCN12 [Example 88g, 2-(3-cyclopropyl-1H-1,2,4-triazol-1-yl)-9-(thiazol-2-yl)-7,8-dihydro-[1,4]diazepino[7,1-a]isoquinolin-5(4H)-one] | 0.761 | 0.017 | 
COCCc1cn(C2=NCC(=O)N3CCc4c(cccc4-c4nccs4)C3=C2)cn1 [Example 88h, 2-(4-(2-methoxyethyl)-1H-imidazol-1-yl)-9-(thiazol-2-yl)-7,8-dihydro-[1,4]diazepino[7,1-a]isoquinolin-5(4H)-one] | 1.05 | 0.046 | 
CCOCc1cn(C2=NCC(=O)N3CCc4c(cccc4-c4nccs4)C3=C2)cn1 [Example 88j, 2-(4-(ethoxymethyl)-1H-imidazol-1-yl)-9-(thiazol-2-yl)-7,8-dihydro-[1,4]diazepino[7,1-a]isoquinolin-5(4H)-one] | 1.86 | 0.056 | 
O=C1CN=C(n2cnc(C3CC3)c2)C=C2c3cccc(-c4cnccc4F)c3CCN12 [Example 88k, 2-(4-cyclopropyl-1H-imidazol-1-yl)-9-(4-fluoropyridin-3-yl)-7,8-dihydro-[1,4]diazepino[7,1-a]isoquinolin-5(4H)-one] | 5.86 | 0.069 | 
CCc1cccc2c1CCN1C(=O)CN=C(n3cnc(C(C)C)c3)C=C21 [Example 89, 9-ethyl-2-(4-isopropyl-1H-imidazol-1-yl)-7,8-dihydro-[1,4]diazepino[7,1-a]isoquinolin-5(4H)-one] | 0.65 | 0.028 | 
CCCc1cccc2c1CCN1C(=O)CN=C(n3cnc(C)c3)C=C21 [Example 90, 2-(4-methyl-1H-imidazol-1-yl)-9-propyl-7,8-dihydro-[1,4]diazepino[7,1-a]isoquinolin-5(4H)-one] | 1.5 | 0.01 | 
COCc1cn(C2=NCC(=O)N3CCc4c(cccc4C4CCC4)C3=C2)cn1 [Example 91, 9-cyclobutyl-2-(4-(methoxymethyl)-1H-imidazol-1-yl)-7,8-dihydro-[1,4]diazepino[7,1-a]isoquinolin-5(4H)-one] | 0.22 | 0.009 | 
Cc1ncn(C2=NCC(=O)N3CCc4c(cccc4C4CCC4)C3=C2)n1 [Example 92, 9-cyclobutyl-2-(3-methyl-1H-1,2,4-triazol-1-yl)-7,8-dihydro-[1,4]diazepino[7,1-a]isoquinolin-5(4H)-one] | 0.636 | < 0.001 | 
COCc1ncn(C2=NCC(=O)N3CCc4c(cccc4C4CC4)C3=C2)n1 [Example 93, 9-cyclopropyl-2-(3-(methoxymethyl)-1H-1,2,4-triazol-1-yl)-7,8-dihydro-[1,4]diazepino[7,1-a]isoquinolin-5(4H)-one] | 1.5 | 0.003 | 
CC(C)c1cn(C2=NCC(=O)N3CCc4c(-c5ccc(F)nc5)ccnc4C3=C2)cn1 [Example 94, 4-(6-fluoropyridin-3-yl)-11-(4-isopropyl-1H-imidazol-1-yl)-5,6-dihydro-[1,4]diazepino[1,7-h][1,7]naphthyridin-8(9H)-one] | > 10 | 2.7 | 
O=C1CN=C(n2cnc(C3CC3)c2)C=C2c3cccc(-c4ccc(F)nc4)c3CCN12 [Example 95-1, 2-(4-cyclopropyl-1H-imidazol-1-yl)-9-(6-fluoropyridin-3-yl)-7,8-dihydro-[1,4]diazepino[7,1-a]isoquinolin-5(4H)-one] | 10 | 0.02 | 
O=C1CN=C(n2cnc(C3CC3)n2)C=C2c3cccc(-c4ccc(F)nc4)c3CCN12 [Example 95-2, 2-(3-cyclopropyl-1H-1,2,4-triazol-1-yl)-9-(6-fluoropyridin-3-yl)-7,8-dihydro-[1,4]diazepino[7,1-a]isoquinolin-5(4H)-one] | > 10 | 0.011 | 
COCc1cn(C2=NCC(=O)N3CCc4c(cccc4C4CC4)C3=C2)cn1 [Example 96-1, 9-cyclopropyl-2-(4-(methoxymethyl)-1H-imidazol-1-yl)-7,8-dihydro-[1,4]diazepino[7,1-a]isoquinolin-5(4H)-one] | 0.54 | 0.006 | 
